Laboratory results reported in US20240285623A1, “TRPA1 CHANNEL ANTAGONIST COMPOUND FOR USE IN DEGENERATIVE RETINAL DISEASES” (FLONEXT S.R.L., priority 2021, published 2024).

Key:
[1] = tested on: RPE layer (retinal pigmented epithelium); experiment: Immunofluorescence (RPE65) for assessing damage of the retinal pigment epithelium in the NalO3-induced mouse model of macular degeneration; assay type: in vivo, C57BL/6J male mice; conditions: for protection of the retina from NalO3-induced damage of the cells of the RPE layer (in words): NalO3 mouse model, eye drops; for reduction of the NalO3-induced damage on the RPE layer compared to V2 (RPE65 staining intensity): eye drops 5 μl of 10 mM solution, 60 min before NalO3 (20 mg/kg, retro-orbital vein) then 3 times a day, retina collected day 4, mean±SEM, P<0.01 vs. V2/NalO3
Protocol: (§1) To create a valid model of macular degeneration, the systemic administration (via the retro-orbital vein) of NalO3 was carried out in C57BL/6J male mice aged 5-8 weeks and weighing 22-25 g supplied by the Charles River company (Milan, Italy). In order to carry out the experiments described below, a total of 36 mice were used. The animals were kept in a temperature and humidity-controlled environment (12-hour dark/light cycle, free access to food and water). The experiments were performed in a temperature-controlled room (20 to 22° C.) between 8:00 and 20:00. At the end of the experiment, the animals were euthanized by inhalation of a mixture of 50% O2/50% CO2 for 1 minute. The NalO3, DMSO, Tween 80 and NaCl 0.9% reagents used in the study were purchased from Merck Life Science SRL (Milan, Italy).
(§2) The mice were administered locally, through eye drops, the compounds indicated above or their vehicle consisting of 4% DMSO, 4% Tween 80 in 0.9% NaCl.
(§3) In particular, a group of 6 mice (used as a control) was administered by instillation, 60 minutes before the injection into the retro-orbital vein (1 ml/kg) of the vehicle (V1) (NaCl, 0.9%) of NalO3 and subsequently 3 times a day, eye drops (5 μl) containing the vehicle (V2) (4% DMSO, 4% Tween 80 in NaCl 0.9%) of the drugs.
(§4) Another 30 mice received, in groups of 6 mice each, 60 minutes before the injection into the retro-orbital vein (1 ml/kg) of NalO3 (1%, 20 mg/kg) and subsequently 3 times a day, eye drops (5 μl) of a 10 mM solution of the above-mentioned compounds FN-005, FN-006, FN-007, FN-008 or their vehicle (V2) (4% DMSO, 4% Tween 80 in 0.9% NaCl) by instillation.
(§5) For each group of mice, the first administration (day 1) of the compound of formula (IV), of the compound of formula (I), of the compound of formula (II) and of the compound of formula (III) or of the vehicle (V2) was performed 60 minutes before the injection of NalO3 or its vehicle (V1) and the second and third administration were performed 6 and 12 hours after the injection of vehicle (V1) or NalO3, respectively. On the two days (day 2 and day 3) following the injection of vehicle (V1) or NalO3, the compounds of formula (IV), (I), (II), and (III) or vehicle (V2) were administered to the various groups of mice at 8:00, 14:00 and 20:00.
(§6) At 09:00 on day 4 after the treatment with vehicle (V1) or NalO3 the mice given the compounds indicated above as FN-005, FN-006, FN-007, FN-008 or their vehicle (V2) were sacrificed (as previously reported) and the eyeballs were enucleated and processed for subsequent analysis of the damage.
Direct immunofluorescence was used to assess damage to the RPE (retinal pigmented epithelium), which corresponds to the layer of pigmented cells immediately adjacent to the neurosensory retina which nourishes the visual cells of the retina, and is firmly attached to the underlying choroid and the overlying visual retinal cells.
The staining intensity of the RPE layer was quantified using a primary antibody (RPE65, #ab13826, mouse monoclonal, 1:100, Abcam, Cambridge, UK) to which a second fluorophore-labelled antibody (Alexa Fluor 488, #A28175, Thermo Fisher Scientific) binds in the 6 groups of mice treated with V2/V1, V2/NalO3, with the compound of formula (IV) and NalO3 (FN-005/NalO3), with the compound of formula (I) of polycyclic heteroaromatic derivatives and NalO3 (FN-006/NalO3), with the compound of formula (II) and NalO3 (FN-007/NalO3) and with the compound of formula (III) and NalO3 (FN-008/NalO3). Cell nuclei were visualized using the DAPI organic dye (#ab228549, Abcam, Cambridge, UK).
The data relating to the fluorescence intensity value are presented for each treatment as mean±SEM. *p<0.05 vs V1/V2; § p<0.05 vs NalO3 in FIG. 1B. Statistical analysis using one-way analysis of variance (ANOVA) test and Bonferroni test.

[2] = tested on: 4-hydroxynonenal (4-HNE); experiment: Assessment of oxidative stress at the retinal level (4-HNE immunofluorescence) in the NalO3-induced mouse model of macular degeneration; assay type: in vivo, C57BL/6J male mice; conditions: for protection of the retina from the NalO3-induced increase of 4-HNE (in words): NalO3 mouse model, eye drops; for reduction of the retinal levels of 4-HNE (immunofluorescence): eye drops 5 μl of 10 mM solution, 60 min before NalO3 (20 mg/kg, retro-orbital vein) then 3 times a day, retina collected day 4, mean±SEM, P<0.01 vs. V2/NalO3
Protocol: as §1, §2, §3, §4, §5, §6
The level of oxidative stress was also assessed throughout the thickness of the retina by measuring the immunofluorescence intensity for the reactive carbonyl species, 4-hydroxynonenal (4-HNE), a final indicator of oxidative stress.
Levels of 4-HNE were quantified using a primary antibody (#ab48506, monoclonal mouse [HNEJ-2], 1:40, Abcam, Cambridge, UK) to which a second fluorophore-labelled antibody (Alexa Fluor 594, #A A32742, Thermo Fisher Scientific) binds in the 6 groups of mice treated as described above.
Cell nuclei were visualized using the DAPI organic dye (#ab228549, Abcam, Cambridge, UK).
The data relating to the fluorescence intensity value are presented for each treatment as mean±SEM. *p<0.05 vs V1/V2; § p<0.05 vs NalO3 in FIG. 2B. Statistical analysis using one-way analysis of variance (ANOVA) test and Bonferroni test.

SMILES | protection of the retina from NalO3-induced damage of the cells of the RPE layer (in words) [1] | reduction of the NalO3-induced damage on the RPE layer compared to V2 (RPE65 staining intensity) [1] [%] | protection of the retina from the NalO3-induced increase of 4-HNE (in words) [2] | reduction of the retinal levels of 4-HNE (immunofluorescence) [2] [%]
COCCCOc1cccc([C@H]2NC(=S)NC3=C2C(=O)c2ccccc23)c1 [compound of formula (II)] | particularly effective in protecting the retina | 60.0±12.8 | protected the retina | 50.32±6.30
C[C@H]1[C@H](F)C[C@@H](C(=O)NCc2cc(-c3cnc(C(F)(F)F)nc3)ncc2C(F)(F)F)N1S(=O)(=O)c1ccc(F)cc1 [compound of formula (IV)] | particularly effective in protecting the retina | 84.5±33 | protected the retina | 64.16±17.51
Cc1cc2[nH]ncc2cc1-c1ccccc1C(F)(F)F [compound of formula (III)] | particularly effective in protecting the retina | 96.8±20.0 | protected the retina | 62.10±7.55
